# According to patent US7759331B2, “Pyridine-containing macroheterococylic compounds as kinase inhibitors” (Janssen Pharmaceutica NV, priority 2006, dated 2010):
# “And” between values parts separate entries of the source, which are not always exact repeats. Identical values can stand only once.
# Molecular target: GSK3β(h) (Homo sapiens, UniProt P49841)
# Experiment: Glycogen Synthase Kinase-3 Assay
# Format: biochemical
# Conditions: assay run three times for each compound; each run's value listed
# Protocol: Compounds were tested for the ability to inhibit GSK-3β protein. Briefly, in a final reaction volume of 25 μL, GSK-3β (h) (5-10 mU) was incubated with 8 mM MOPS pH 7.0, 0.2 mM EDTA, 20 μM […](p)EDEEE (phospho GS2 peptide), 10 mM Mg Acetate and [γ-^33P-ATP] (specific activity approx. 500 cpm/pmol, concentration as required). The reaction was initiated by the addition of the MgATP mix. After incubation for 40 minutes at room temperature, the reaction was stopped by the addition of 5 μL of a 3% phosphoric acid solution. 10 μL of the reaction was then spotted onto a P30 filtermat and washed three times for 5 minutes in 50 mM phosphoric acid and once in methanol prior to drying and scintillation counting.
# The GSK-3β assay was run three times for each compound.
# Chain of GSK3β(h) (P49841 whole entry): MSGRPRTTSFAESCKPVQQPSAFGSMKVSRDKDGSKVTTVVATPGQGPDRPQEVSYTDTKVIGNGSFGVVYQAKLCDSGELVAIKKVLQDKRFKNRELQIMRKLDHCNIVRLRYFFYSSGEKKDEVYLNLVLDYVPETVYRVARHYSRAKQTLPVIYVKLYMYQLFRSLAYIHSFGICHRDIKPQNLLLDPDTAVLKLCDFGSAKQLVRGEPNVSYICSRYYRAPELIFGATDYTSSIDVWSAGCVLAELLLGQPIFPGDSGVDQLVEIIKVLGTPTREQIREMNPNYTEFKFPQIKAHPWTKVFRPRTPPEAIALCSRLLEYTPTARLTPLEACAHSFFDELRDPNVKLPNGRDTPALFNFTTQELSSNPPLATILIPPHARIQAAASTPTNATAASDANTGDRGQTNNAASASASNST
row,SMILES,IC50
1,"CN(C)c1nc2ccc1CCCn1cc(c3ccccc31)C1=C(C(=O)NC1=O)c1cn(c3ccccc13)CCC2 [Cpd 3, 31-(dimethylamino)-5,15,25,30-tetraazaheptacyclo[27.2.2.1^5,12.1^18,25.0^6,11.0^13,17.0^19,24]pentatriaconta-1(31),6,8,10,12(35),13(17),18(34),19,21,23,29,32-dodecaene-14,16-dione]",0.0055 µM and 0.0529 µM and 0.0521 µM
2,"Cc1ccc(-c2cc3cc(n2)CCCn2cc(c4ccccc42)C2=C(C(=O)NC2=O)c2cn(c4ccccc24)CCC3)cc1 [Cpd 4, 20-(4-methylphenyl)-4,14,19,26-tetraazaheptacyclo[24.6.1.1^7,14.1^18,22.0^2,6.0^8,13.0^27,32]pentatriaconta-1(33),2(6),7(35),8,10,12,18(34),19,21,27,29,31-dodecaene-3,5-dione]",0.01 µM and 0.021 µM and 0.0535 µM
3,"O=C1NC(=O)C2=C1c1cn(c3ccccc13)CCCCc1ccc(c(N3CCCC3)n1)CCCCn1cc2c2ccccc21 [Cpd 5, 33-pyrrolidin-1-yl-6,16,26,32-tetraazaheptacyclo[29.2.2.1^6,13.1^19,26.0^7,12.0^14,18.0^20,25]heptatriaconta-1(33),7,9,11,13(37),14(18),19(36),20,22,24,31,34-dodecaene-15,17-dione]",0.024 µM and 0.0193 µM and 0.0298 µM
